Measurements: patent US4605670A, “Method for percutaneously administering metoclopramide” (priority 1984, dated 1986)
Structures can show the parent of a compound that is named as a salt.

Type: in vitro ADME, male albino rats
Source text: Rat full thickness skins were used in the diffusion cell method of Michaels, AlChE Journal, 21 [5], 985-996, (1975). The rat skin was mounted in the diffusion cell in a vertical position between the upstream and the downstream compartments; the exposed area of the skin approximated 4.15 cm^2.
The skin was excised from the shaved abdominal site of male albino rats weighing 250~300 g, and washed with normal saline solution after the subcutaneous fat was carefully removed with scissors.
An MCP solution of known concentration was added to the upper compartment of the cell, which was exposed to the epithelial side of the skin and a normal saline solution was placed in the lower compartment.
The penetration rate was studied in a thermostated bath at 30° C. At appropriate intervals samples were withdrawn from the lower compartment and subsequently analyzed for MCP concentration by standard analytical methods. This regimen was used in Examples 1 to 10.
Unless otherwise indicated, in all of the examples, the active agent was MCP.HCl, the MCP.HCl flux is given in terms of ug/cm^2 /8hrs, 25 volume percent of the adjuvant with respect to the adjuvant plus solvent volume was used in combination with 2.5 weight percent of active agent based on the weight of the adjuvant plus solvent; otherwise, all percents are volume percents based on adjuvant, solvent or adjuvant plus solvent volume, depending on the system.
Compositions were typically prepared by merely mixing the adjuvant and solvent together, then mixing the MCP.HCl in the mixture and then, if used, mixing the diol therein. The order of mixing is not important.

Row | MCP.HCl Flux | Compound | MCP HCl flux with increasing MCP HCl concentration
1 | – | CCN(CC)CCNC(=O)c1cc(Cl)c(N)cc1OC [MCP HCl, metoclopramide.HCl, reference compound] | Flux increases linearly with increasing drug concentration
2 | 1296 ug/cm^2 /8 hrs | Hydroxy ethyl cellulose | –
3 | 843 ug/cm^2 /8 hrs | Hydroxy propyl cellulose | –
